Test system: liver radiation-induced fibrosarcoma (RIF-1), RFA-induced necrosis
Assay: Hypericin distribution in liver RIF-1 tumor in mice after radiofrequency ablation, fluoromacroscopy and fluorescence microscopy
Assay type: in vivo
Details: 5 mg/kg iv 24 h after RFA, 3 d after injection
Procedure: The rectangular frame in A and B indicates where micrographs (C and D) were approximately focused. […] Thus, the prolonged retention of hypericin in necrosis matches well the radiation half life of iodine-131 (8 d) or yttrium-90 (64 h), which offers an ideal condition for the present adjuvant anti-cancer radiotherapy with combined use of a small molecule therapeutically labeled NACCs featuring multi-millimeter irradiation penetration (max. range of beta particles in tissue is 2.4 mm for iodine-131 and 12 mm for yttrium-90).

## Cc1cc(O)c2c(=O)c3c(O)cc(O)c4c5c(O)cc(O)c6c(=O)c7c(O)cc(C)c8c1c2c(c34)c(c78)c65 [hypericin]
  Fluorescence microscopy of necrotic tumor regions: can still be detected in RFA-induced necrotic tumor regions (NT)
  Tissue distribution by UV light fluoromacroscopy: almost completely cleared from viable liver (VL) and viable tumor (VT), but is retained only in necrotic tumor (NT) and necrotic liver (NL)
